The target in this experiment is T1, PHA-E (Phaseolus vulgaris erythroagglutinin) (Phaseolus vulgaris, UniProt P05088).
T1 construct: purchased Vector Laboratories (Newark, CA, USA)
It is filed as binding. To be noted: read-out: Kd (Native); pH 6.9.

T1 sequence (P05088 22-275 limits assumed): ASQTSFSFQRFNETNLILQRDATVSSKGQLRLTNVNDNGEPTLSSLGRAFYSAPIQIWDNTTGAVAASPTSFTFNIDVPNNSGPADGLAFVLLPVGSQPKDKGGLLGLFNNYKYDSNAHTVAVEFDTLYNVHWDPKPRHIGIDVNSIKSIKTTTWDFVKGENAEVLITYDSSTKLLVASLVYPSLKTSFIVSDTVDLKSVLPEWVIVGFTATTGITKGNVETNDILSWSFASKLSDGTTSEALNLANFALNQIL

As to `CC(=O)N[C@H]1[C@H](O[C@H]2[C@H](O)[C@@H](NC(C)=O)C(O)O[C@@H]2CO[C@@H]2O[C@@H](C)[C@@H](O)[C@@H](O)[C@@H]2O)O[C@H](CO)[C@@H](O[C@@H]2O[C@H](CO[C@H]3O[C@H](CO)[C@@H](O)[C@H](O)[C@@H]3O[C@@H]3O[C@H](CO)[C@@H](O)[C@H](O)[C@H]3NC(C)=O)[C@@H](O)[C@H](O[C@H]3O[C@H](CO)[C@@H](O)[C@H](O)[C@@H]3O[C@@H]3O[C@H](CO)[C@@H](O)[C@H](O)[C@H]3NC(C)=O)[C@@H]2O)[C@@H]1O` (stereo partly drawn) [HexNAc4Hex3Fuc1], the Kd was 18.6 ± 3.5 µM. With `CC(=O)N[C@H]1[C@H](O[C@H]2[C@H](O)[C@@H](NC(C)=O)C(O)O[C@@H]2CO[C@@H]2O[C@@H](C)[C@@H](O)[C@@H](O)[C@@H]2O)O[C@H](CO)[C@@H](O[C@@H]2O[C@H](CO[C@H]3O[C@H](CO)[C@@H](O)[C@H](O)[C@@H]3O[C@@H]3O[C@H](CO)[C@@H](O[C@@H]4O[C@H](CO)[C@H](O)[C@H](O)[C@H]4O)[C@H](O)[C@H]3NC(C)=O)[C@@H](O)[C@H](O[C@H]3O[C@H](CO)[C@@H](O)[C@H](O)[C@@H]3O[C@@H]3O[C@H](CO)[C@@H](O[C@@H]4O[C@H](CO)[C@H](O)[C@H](O)[C@H]4O)[C@H](O)[C@H]3NC(C)=O)[C@@H]2O)[C@@H]1O` (stereo partly drawn) [HexNAc4Hex5Fuc1] the figure was 12.3 ± 3.6 µM; with `CC(=O)N[C@H]1[C@H](O[C@H]2[C@H](O)[C@@H](NC(C)=O)C(O)O[C@@H]2CO)O[C@H](CO)[C@@H](O[C@@H]2O[C@H](CO[C@H]3O[C@H](CO)[C@@H](O)[C@H](O)[C@@H]3O[C@@H]3O[C@H](CO)[C@@H](O[C@@H]4O[C@H](CO)[C@H](O)[C@H](O)[C@H]4O)[C@H](O)[C@H]3NC(C)=O)[C@@H](O)[C@H](O[C@H]3O[C@H](CO)[C@@H](O)[C@H](O)[C@@H]3O[C@@H]3O[C@H](CO)[C@@H](O[C@@H]4O[C@H](CO)[C@H](O)[C@H](O)[C@H]4O)[C@H](O)[C@H]3NC(C)=O)[C@@H]2O)[C@@H]1O` (stereo partly drawn) [HexNAc4Hex5], 13.1 ± 0.8 µM.

As usually defined, the Kd is the constant that tells how readily two partners part at equilibrium.
